What was measured:
[1] = tested on: human embryonic stem cell line H1; test: Attachment of human embryonic stem cell line H1 to planar substrates of Table 1, with or without H-1152; assay type: cell-based
Method: Prior to testing, cells of the human embryonic stem cell line H1 cells were expanded on tissue culture plates coated with a 1:30 dilution of growth factor-reduced MATRIGEL®. Cells were seeded onto 100 mm culture dishes in 10 ml MEF conditioned media supplemented with 20 ng/ml bFGF (MEF-CM/bFGF). The cells were cultured at 37° C. in a humidified with a 5% CO2 atmosphere. The media was changed everyday with fresh MEF-CM/bFGF. Once the cells reached approximately 80% confluence, the cells were passaged by treatment with 1 mg/ml LIBERASE for 5 minutes at 37° C. The digestion was stopped by removing enzyme from the dish and rinsing the cells with MEF-CM/bFGF. The cells were collected by manual scraping in 10 ml MEF-CM/bFGF and transferred to a 50-ml conical tube. The cells were centrifuged at 200×g (1000 rpm) on a tabletop centrifuge to form a pellet. […]
Cells of the human embryonic stem cell line H1 were seeded onto the various planar substrates set forth in Table 1, at a density of 100,000 cells/cm^2. […] The effect of the Rho kinase inhibitor H-1152 on the attachment of the cells to the planar substrates was determined 3 μM H-1152 was added to the medium used to seed the cells. […] The cells were then stained with 1% hematoxylin, and the number of cells was determined via light microscopy. […]

[2] = tested on: human embryonic stem cell line H1; test: Attachment of H1 cells to polycarbonate Membrane No. 7 with H-1152 concentration series; assay type: cell-based; details: 24 hours
Method: In a separate experiment, the effect of the Rho kinase inhibitor H-1152 on the attachment of cells of the human embryonic stem cell line H1 to Membrane No. 7 was determined. The cells were seeded on a planar substrate comprising polycarbonate membranes (membrane No. 7) at a density of 150,000 cells/cm^2 in MEF-CM containing 20 ng/ml bFGF. The Rho Kinase inhibitor H-1152 was added to the culture medium at concentration of 0, 0.03, 0.1, 0.3, 1, and 3 μM. After 24 hours, the cells on the membrane were fixed with 4% paraformaldehyde, rinsed with PBS, air dried, stained with crystal violet dye. The number of cells was determined via light microscopy. Wells containing vehicle were included as a control.

[3] = tested on: human embryonic stem cell line H1; test: Detachment of H1 cells from polycarbonate Membrane No. 9 after removal of H-1152; assay type: cell-based; details: 3 μM for 24 hr, then 24 hours without
Method: Cells of the human embryonic stem cell line H1 were seeded on to a planar substrate comprising polycarbonate (Membrane No. 9) at a density of 100,000 cells/cm^2, in MEF conditioned medium containing 20 ng/ml bFGF and 3 μM of the Rho kinase inhibitor H-1152. The cells were cultured for 24 hr. After this time, the culture medium was replaced with MEF conditioned medium containing 20 ng/ml bFGF, lacking H-1152. After 24 hours, the cells on the membrane were fixed with 4% paraformaldehyde, rinsed with PBS, air dried, stained with crystal violet dye. The number of cells was determined via light microscopy. Wells containing H-1152 were included as a control.

[4] = tested on: human embryonic stem cell line H1; test: Effect of porosity and Rho kinase inhibition on attachment of H1 cells (Membranes No. 10 and 11); assay type: cell-based
Method: Cells of the human embryonic stem cell line H1 at passage 42 were seeded onto the following planar substrates: Membrane No. 10 (pore size 0.4 μm); and Membrane No. 11 (pore size 3 μm). Cells were seeded at a density of 100,000 cells/cm^2, in MEF conditioned medium containing 20 ng/ml bFGF. The effect of Rho kinase inhibition on the attachment of the cells to the planar substrates was also examined. The cell culture medium was supplemented with 0.3 μM H-1152. After 24 hours, the culture medium was replaced with MEF conditioned medium containing 20 ng/ml bFGF, lacking H-1152. After another 24 hours culture, the cells on the membrane were fixed with 4% paraformaldehyde, rinsed with PBS, air dried, stained with crystal violet dye. Wells containing 1 μM H-1152 were included as a control. The number of cells was determined via light microscopy. Wells containing vehicle were included as a control.

[5] = tested on: human embryonic stem cell line H9; test: Attachment of H9 cells to mixed cellulose ester membrane No. 1 with Y26732; assay type: cell-based; details: for Effect of Y26732 on attachment of H9 cells: 24 hours
Method: Cells of the human embryonic stem cell line H9 were cultured on MATRIGEL® coated dishes prior to experimental manipulation. Cells were seeded a mixed cellulose ester membrane (membrane No. 1) at a density of 150,000 cells/cm^2 in MEF conditioned medium. The planar substrate lacked an adlayer and a fibroblast feeder cell layer. The effect of the Rho Kinase inhibitor treatment on the attachment to the planar substrate was examined Cells were treated with 0, 10, or 20 μM Y26732. After 24 hours, the cells were fixed with 4% paraformaldehyde, rinsed with PBS, air dried, stained with crystal violet dye. The number of cells was determined via light microscopy. Wells containing vehicle were included as a control.

[6] = tested on: human embryonic stem cell line H9; test: Attachment of H9 cells to polycarbonate Membrane No. 7 with Y26732; assay type: cell-based; details: 24 hours
Method: Cells of the human embryonic stem cell line H9 were seeded onto a planar substrate comprising polycarbonate (Membrane No. 7) at a density of 150,000 cells/cm^2 in MEF conditioned medium. The effect of Rho kinase inhibitor treatment on attachment was examined: The Rho Kinase inhibitor Y26732 was added to the culture medium at concentration of 0, 10, or 20 μM. After 24 hours, the cells on the membrane were fixed with 4% paraformaldehyde at room temperature, rinsed with PBS, air dried, stained with crystal violet dye. The number of cells was determined via light microscopy. Wells containing vehicle were included as a control.

[7] = tested on: dissociated human embryonic stem cells; details: serum-free suspension culture; cited from earlier work
[8] = tested on: human embryonic stem cells; details: cited from earlier work

Row | Structure (SMILES) | Effect of H-1152 on attachment of H1 cells ([1]; 3 μM H-1152, membranes No. 2, 4 and 5) | Effect of removal of H-1152 from the culture medium on attached H1 cells ([1]; membranes No. 7 and No. 12) | Attachment of H1 cells with H-1152 ([2]; 0.03 μM) | Attachment of H1 cells with H-1152 ([2]; 0.1 μM) | Attachment of H1 cells with H-1152 ([2]; 0.3 μM) | Attachment of H1 cells with H-1152 ([2]; 1 μM) | Attachment of H1 cells with H-1152 ([2]; 3 μM) | Effect of removal of H-1152 from the culture medium [3] | Need for H-1152 to maintain attachment of H1 cells ([4]; 1 μM, Membranes No. 10 and 11) | Effect of removal of H-1152 from the culture medium ([4]; Membrane No. 10 and Membrane No. 11) | Effect of Y26732 on attachment of H9 cells ([5]; 10 μM) | Effect of Y26732 on attachment of H9 cells ([5]; 20 μM) | Effect of removal of Y26732 from the culture medium ([5]; removal for 24 hr) | Effect of Y26732 on attachment of H9 cells ([6]; 10 μM) | Effect of Y26732 on attachment of H9 cells ([6]; 20 μM) | apoptosis of dissociated human ES cells [7] | attachment of human embryonic stem cells on surface modified plates [8]
1 | Cc1cncc2cccc(S(=O)(=O)N3CCCNC[C@@H]3C)c12 [Membrane H-1152] | enhanced | led to detachment of H1 cells | do not attach | do not attach | attachment was observed | attachment was observed | attachment was observed | resulted in the detachment of cells | required to maintain the attachment | resulted in detachment of cells |  |  |  |  |  |  | 
2 | C[C@@H](N)[C@H]1CC[C@H](C(=O)Nc2ccncc2)CC1 [Membrane Y26732] |  |  |  |  |  |  |  |  |  |  | increased the attachment | increased the attachment | did not result in the detachment | resulted in the attachment | resulted in the attachment | protected from apoptosis | enhance the attachment
